Tests used:
[1] = test system: juvenile soft ticks (Ornithodoros moubata); experiment: Guinea pig - efficacy against argaside tick; type: in vivo; details: for effective to control ticks: 5 mg/kg
Method: (§1) Guinea pigs were locally co-infested (using an infestation device on a shaved skin area) with juvenile soft ticks (Ornithodoros moubata) and bed bugs (Cimex lectularius) before the treatment day (Day 0) to provide a baseline-negative control value. Guinea pigs were treated orally (by gavage) or subcutaneously at a dose of 5 mg/kg bodyweight of a test compound in a formulation of 10% DMF/Emulsifier+90% Aqua ad injectabilia.
(§2) Repeated local infestations with both parasites were performed at different time points after treatment. Within approximately 45 min after each infestation ten engorged ticks and ten engorged bed bugs were • collected and the percentage of dead and damaged parasites per species were • assessed approximately 24 hours following collection. The efficacy was • calculated as % of inhibition ‘killed+damaged’ parasites in a treated group in comparison to the baseline-negative control (using a modified Schneider Orelli's formula).
(§3) Results: Activity of the test compounds at different evaluation time-points (≥80% inhibition were found active): […]

[2] = test system: bed bugs (Cimex lectularius); experiment: Guinea pig - efficacy against bed bug; type: in vivo; details: for effective to control bed bugs: 5 mg/kg
Method: as §1, §2, §3

[3] = 5 mg/kg subcutaneous, after 7 days
[4] = 5 mg/kg subcutaneous, after 10 days
[5] = 5 mg/kg subcutaneous, after 14 days
[6] = 5 mg/kg subcutaneous, after 17 days
[7] = at least until Day 10, both administration routes (oral, subcutaneous)
[8] = 5 mg/kg subcutaneous, after 21 days
[9] = 5 mg/kg subcutaneous, after 24 days
[10] = 5 mg/kg subcutaneous, after 28 days
[11] = 5 mg/kg subcutaneous, after 31 days
[12] = for at least one week, both administration routes
[13] = 5 mg/kg subcutaneous, after 35 days

## O=C(Nc1ncc(F)cc1F)c1cc(NC(=O)C2C(c3cc(Cl)c(F)c(Cl)c3)C2(Cl)Cl)ccc1Cl (stereo not drawn) [Compound 469]
[1]; 5 mg/kg oral, Day 0
  activity against tick nymphs (≥80% inhibition, killed+damaged): immediate activity
[1]; 5 mg/kg oral, after 7 days
  activity against tick nymphs (≥80% inhibition, killed+damaged): activity
[1]; 5 mg/kg oral, after 10 days
  activity against tick nymphs (≥80% inhibition, killed+damaged): activity
[1]; 5 mg/kg subcutaneous, Day 0
  activity against tick nymphs (≥80% inhibition, killed+damaged): immediate activity
[1]; [3]
  activity against tick nymphs (≥80% inhibition, killed+damaged): activity
[1]; [4]
  activity against tick nymphs (≥80% inhibition, killed+damaged): activity
[1]; [5]
  activity against tick nymphs (≥80% inhibition, killed+damaged): activity
[1]; [6]
  activity against tick nymphs (≥80% inhibition, killed+damaged): activity
[1]; [7]
  effective to control ticks: 100%
[2]; 5 mg/kg oral, Day 0
  activity against bed bugs (≥80% inhibition, killed+damaged): immediate activity
[2]; 5 mg/kg oral, after 7 days
  activity against bed bugs (≥80% inhibition, killed+damaged): activity
[2]; 5 mg/kg oral, after 10 days
  activity against bed bugs (≥80% inhibition, killed+damaged): activity
[2]; 5 mg/kg subcutaneous, Day 0
  activity against bed bugs (≥80% inhibition, killed+damaged): immediate activity
[2]; [3]
  activity against bed bugs (≥80% inhibition, killed+damaged): activity
[2]; [4]
  activity against bed bugs (≥80% inhibition, killed+damaged): activity
[2]; [5]
  activity against bed bugs (≥80% inhibition, killed+damaged): activity
[2]; [6]
  activity against bed bugs (≥80% inhibition, killed+damaged): activity
[2]; [8]
  activity against bed bugs (≥80% inhibition, killed+damaged): activity
[2]; [7]
  effective to control bed bugs: 100%

## O=C(Nc1ncc(F)cc1F)c1cc(NC(=O)C2C(c3cc(Cl)c(Cl)c(Cl)c3)C2(Cl)Cl)ccc1Cl (stereo not drawn) [Compound 470]
[1]; 5 mg/kg oral, Day 0
  activity against tick nymphs (≥80% inhibition, killed+damaged): immediate activity
[1]; 5 mg/kg oral, after 7 days
  activity against tick nymphs (≥80% inhibition, killed+damaged): activity
[1]; 5 mg/kg oral, after 10 days
  activity against tick nymphs (≥80% inhibition, killed+damaged): activity
[1]; 5 mg/kg oral, after 14 days
  activity against tick nymphs (≥80% inhibition, killed+damaged): activity
[1]; 5 mg/kg oral, after 17 days
  activity against tick nymphs (≥80% inhibition, killed+damaged): activity
[1]; 5 mg/kg subcutaneous, Day 0
  activity against tick nymphs (≥80% inhibition, killed+damaged): immediate activity
[1]; [3]
  activity against tick nymphs (≥80% inhibition, killed+damaged): activity
[1]; [4]
  activity against tick nymphs (≥80% inhibition, killed+damaged): activity
[1]; [5]
  activity against tick nymphs (≥80% inhibition, killed+damaged): activity
[1]; [6]
  activity against tick nymphs (≥80% inhibition, killed+damaged): activity
[1]; [8]
  activity against tick nymphs (≥80% inhibition, killed+damaged): activity
[1]; [9]
  activity against tick nymphs (≥80% inhibition, killed+damaged): activity
[1]; [10]
  activity against tick nymphs (≥80% inhibition, killed+damaged): activity
[1]; [11]
  activity against tick nymphs (≥80% inhibition, killed+damaged): activity
[1]; [12]
  effective to control ticks: 100%
[2]; 5 mg/kg oral, Day 0
  activity against bed bugs (≥80% inhibition, killed+damaged): immediate activity
[2]; 5 mg/kg oral, after 7 days
  activity against bed bugs (≥80% inhibition, killed+damaged): activity
[2]; 5 mg/kg oral, after 10 days
  activity against bed bugs (≥80% inhibition, killed+damaged): activity
[2]; 5 mg/kg oral, after 14 days
  activity against bed bugs (≥80% inhibition, killed+damaged): activity
[2]; 5 mg/kg oral, after 17 days
  activity against bed bugs (≥80% inhibition, killed+damaged): activity
[2]; 5 mg/kg oral, after 21 days
  activity against bed bugs (≥80% inhibition, killed+damaged): activity
[2]; 5 mg/kg oral, after 24 days
  activity against bed bugs (≥80% inhibition, killed+damaged): activity
[2]; 5 mg/kg oral, after 28 days
  activity against bed bugs (≥80% inhibition, killed+damaged): activity
[2]; 5 mg/kg subcutaneous, Day 0
  activity against bed bugs (≥80% inhibition, killed+damaged): immediate activity
[2]; [3]
  activity against bed bugs (≥80% inhibition, killed+damaged): activity
[2]; [4]
  activity against bed bugs (≥80% inhibition, killed+damaged): activity
[2]; [5]
  activity against bed bugs (≥80% inhibition, killed+damaged): activity
[2]; [6]
  activity against bed bugs (≥80% inhibition, killed+damaged): activity
[2]; [8]
  activity against bed bugs (≥80% inhibition, killed+damaged): activity
[2]; [9]
  activity against bed bugs (≥80% inhibition, killed+damaged): activity
[2]; [10]
  activity against bed bugs (≥80% inhibition, killed+damaged): activity
[2]; [11]
  activity against bed bugs (≥80% inhibition, killed+damaged): activity
[2]; [13]
  activity against bed bugs (≥80% inhibition, killed+damaged): activity
[2]; [12]
  effective to control bed bugs: 100%

## O=C(Nc1ncc(F)cc1F)c1cc(NC(=O)C2C(c3cc(C(F)(F)F)cc(C(F)(F)F)c3)C2(Cl)Cl)ccc1Cl (stereo not drawn) [Compound 471]
[1]; 5 mg/kg oral, Day 0
  activity against tick nymphs (≥80% inhibition, killed+damaged): immediate activity
[1]; 5 mg/kg oral, after 7 days
  activity against tick nymphs (≥80% inhibition, killed+damaged): activity
[1]; 5 mg/kg oral, after 10 days
  activity against tick nymphs (≥80% inhibition, killed+damaged): activity
[1]; 5 mg/kg oral, after 14 days
  activity against tick nymphs (≥80% inhibition, killed+damaged): activity
[1]; 5 mg/kg oral, after 17 days
  activity against tick nymphs (≥80% inhibition, killed+damaged): activity
[1]; 5 mg/kg oral, after 21 days
  activity against tick nymphs (≥80% inhibition, killed+damaged): activity
[1]; 5 mg/kg oral, after 24 days
  activity against tick nymphs (≥80% inhibition, killed+damaged): activity
[1]; 5 mg/kg oral, after 28 days
  activity against tick nymphs (≥80% inhibition, killed+damaged): activity
[1]; 5 mg/kg oral, after 31 days
  activity against tick nymphs (≥80% inhibition, killed+damaged): activity
[1]; 5 mg/kg oral, after 35 days
  activity against tick nymphs (≥80% inhibition, killed+damaged): activity
[1]; 5 mg/kg subcutaneous, Day 0
  activity against tick nymphs (≥80% inhibition, killed+damaged): immediate activity
[1]; [3]
  activity against tick nymphs (≥80% inhibition, killed+damaged): activity
[1]; [4]
  activity against tick nymphs (≥80% inhibition, killed+damaged): activity
[1]; [5]
  activity against tick nymphs (≥80% inhibition, killed+damaged): activity
[1]; [6]
  activity against tick nymphs (≥80% inhibition, killed+damaged): activity
[1]; [8]
  activity against tick nymphs (≥80% inhibition, killed+damaged): activity
[1]; [9]
  activity against tick nymphs (≥80% inhibition, killed+damaged): activity
[1]; [10]
  activity against tick nymphs (≥80% inhibition, killed+damaged): activity
[1]; [11]
  activity against tick nymphs (≥80% inhibition, killed+damaged): activity
[1]; [13]
  activity against tick nymphs (≥80% inhibition, killed+damaged): activity
[1]; [12]
  effective to control ticks: 100%
[2]; 5 mg/kg oral, Day 0
  activity against bed bugs (≥80% inhibition, killed+damaged): immediate activity
[2]; 5 mg/kg oral, after 7 days
  activity against bed bugs (≥80% inhibition, killed+damaged): activity
[2]; 5 mg/kg oral, after 10 days
  activity against bed bugs (≥80% inhibition, killed+damaged): activity
[2]; 5 mg/kg oral, after 14 days
  activity against bed bugs (≥80% inhibition, killed+damaged): activity
[2]; 5 mg/kg oral, after 17 days
  activity against bed bugs (≥80% inhibition, killed+damaged): activity
[2]; 5 mg/kg oral, after 21 days
  activity against bed bugs (≥80% inhibition, killed+damaged): activity
[2]; 5 mg/kg oral, after 24 days
  activity against bed bugs (≥80% inhibition, killed+damaged): activity
[2]; 5 mg/kg oral, after 28 days
  activity against bed bugs (≥80% inhibition, killed+damaged): activity
[2]; 5 mg/kg oral, after 31 days
  activity against bed bugs (≥80% inhibition, killed+damaged): activity
[2]; 5 mg/kg oral, after 35 days
  activity against bed bugs (≥80% inhibition, killed+damaged): activity
[2]; 5 mg/kg subcutaneous, Day 0
  activity against bed bugs (≥80% inhibition, killed+damaged): immediate activity
[2]; [3]
  activity against bed bugs (≥80% inhibition, killed+damaged): activity
[2]; [4]
  activity against bed bugs (≥80% inhibition, killed+damaged): activity
[2]; [5]
  activity against bed bugs (≥80% inhibition, killed+damaged): activity
[2]; [6]
  activity against bed bugs (≥80% inhibition, killed+damaged): activity
[2]; [8]
  activity against bed bugs (≥80% inhibition, killed+damaged): activity
[2]; [9]
  activity against bed bugs (≥80% inhibition, killed+damaged): activity
[2]; [10]
  activity against bed bugs (≥80% inhibition, killed+damaged): activity
[2]; [11]
  activity against bed bugs (≥80% inhibition, killed+damaged): activity
[2]; [13]
  activity against bed bugs (≥80% inhibition, killed+damaged): activity
[2]; [12]
  effective to control bed bugs: 100%

## O=C(Nc1ccc(F)cc1F)c1cc(NC(=O)C2C(c3cc(C(F)(F)F)cc(C(F)(F)F)c3)C2(Cl)Cl)ccc1Cl (stereo not drawn) [Compound 472]
[1]; 5 mg/kg oral, Day 0
  activity against tick nymphs (≥80% inhibition, killed+damaged): immediate activity
[1]; 5 mg/kg subcutaneous, Day 0
  activity against tick nymphs (≥80% inhibition, killed+damaged): immediate activity
[2]; 5 mg/kg oral, Day 0
  activity against bed bugs (≥80% inhibition, killed+damaged): immediate activity
[2]; 5 mg/kg subcutaneous, Day 0
  activity against bed bugs (≥80% inhibition, killed+damaged): immediate activity

Reference: patent publication US20240315993A1, “ANTIPARASITIC COMPOUNDS” (Intervet Inc., priority 2021, published 2024)
